Patent US20060069032A1 (L'OREAL, priority 2003, published 2006)

Legend:
[1] = tested on: Loricrin (LORI) messenger; assay: Loricrin messenger expression by quantitative RT-PCR in reconstructed epidermis SkinEthic; type: cell-based, human
Experimental: (§1) The study was carried out on a model of reconstructed epidermis SkinEthic. Upon receiving, the epidermes were precultured for 24 hours in SkinEthic medium. The culture medium was then replaced with medium containing the test product (two epidermes per concentration tested), and then the epidermes were cultured for 24 hours at 37° C. and 5% CO2. A batch of 2 epidermes was not treated. The culture supernatants were then removed and the epidermes were rinsed with a PBS solution, cut and deposited in sterile RNA-free tubes in the presence of Tri-Reagent (Sigma T9424) and then immediately frozen at −80° C.
(§2) The pairs of primers which were used in this study allow the amplification of the following specific fragments:
(§3) The reverse transcription was carried out in the following manner: • extraction of the total RNA of each epidermis with the aid of Tri-Reagent according to the protocol recommended by the supplier, and then a new extraction with chloroform and precipitation with isopropanol. • removal of the traces of potentially contaminating DNA by treating with the DNA-free system (Ambion) • carrying out of the reaction of reverse transcription of the mRNA in the presence of the oligo(dT) primer and of the enzyme Superscript II (Gibco) • quantification, by fluorescence, of the synthesized cDNA and adjustment of the concentrations of 50 ng/ml.
(§4) The PCR reactions (polymerase chain reactions) were carried out by quantitative PCR with the “Light cycler” system (Roche Molecular Systems Inc.) according to the procedures recommended by the supplier.
(§5) The PCR conditions were the following: activation of 10 min at 95° C., PCR reactions (10 sec at 95° C., 5 sec at 64° C. and 35 sec at 72° C.) 40 cycles, fusion of 5 sec at 95° C. and then 5 sec at 60° C.
(§6) The incorporation of fluorescence into the amplified DNA was measured continuously during the PCR cycles. This system makes it possible to obtain fluorescence measurement curves as a function of the PCR cycles and to thereby evaluate a relative expression value for each marker. The RE (relative expression) value is expressed in arbitrary units according to the following formula: (1/2^number of cycles)×10^6.
(§7) The results were expressed relative to the quantity of actin messenger (reference gene) and are represented, per marker, in the following tables.

[2] = tested on: Calmodulin-like skin protein (CLSP) messenger; assay: Calmodulin-like skin protein (CLSP) messenger expression by quantitative RT-PCR in reconstructed epidermis SkinEthic; type: cell-based, human; details: 0.01 μM, 24 hours
Experimental: as §1, §2, §3, §4, §5, §6, §7

[3] = tested on: Transglutaminase 1 (TGK) messenger; assay: Transglutaminase I (TGK) messenger expression by quantitative RT-PCR in reconstructed epidermis SkinEthic; type: cell-based, human
Experimental: as §1, §2, §3, §4, §5, §6, §7

epidermal keratinocyte = details: Nissen J B et al, Exp. Dermatol. 1997; cited from earlier work
[4] = 0.01 μM, 24 hours, control = 100

## β-Endorphin [Beta-endorphin]
[1]; 0.01 μM, 24 hours
  LORI/actin: 10.2
  RE*LORI (UA): 11.24 UA
[1]; 0.01 μM, 24 hours, reference gene, loricrin table
  RE*actin (UA): 1.11 UA
[1]; [4]
  LORI/actin % control: 179%
[1]; at physiological concentration
  expression of the loricrin marker (in words): stimulate the expression
[2]
  CLSP/actin: 0.0961
  RE*CLSP (UA): 0.1032 UA
[2]; reference gene, CLSP table
  RE*actin (UA): 1.07 UA
[2]; control = 100
  CLSP/actin % control: 174%
[3]; 0.01 μM, 24 hours
  RE*TGK (UA): 0.165 UA
[3]; 0.01 μM, 24 hours, reference gene, TGK table
  RE*actin (UA): 1.11 UA
[3]; [4]
  TGK/actin % control: 176%
[3]; at physiological concentration
  expression of the TGK messenger (in words): an effect of the same type, although slightly less pronounced
Epidermal keratinocyte
  effect on epidermal proliferation and differentiation: no effect
